Source: patent US20240091203A1, “METHODS FOR TREATING NON-OBSTRUCTIVE HYPERTROPHIC CARDIOMYOPATHY” (Cytokinetics, Incorporated, priority 2022, published 2024)
Entries after “also recorded” stand apart in the source; their conditions may differ.

What was measured:
[1] = Phase 1 plasma pharmacokinetics, multiple-ascending dose (MAD) cohorts; format: in vivo, human; conditions: for AUC24 / Cmax / Tmax: Day 1; for AUC24 / Cmax / AUCtau / Cmax, ss: geometric mean; for AUC24 / Cmax / Tmax / AUCtau / Cmax, ss / CLss/F / t1/2 / Tmax, ss: n = 6; for Tmax / Tmax, ss: median; for CLss/F / t1/2: mean ± SD
Method: Multiple-ascending dose (MAD) cohorts. The MAD cohorts also used a randomized, double-blind, placebo-controlled, sequential design.
Pharmacokinetic analyses. For all study groups, blood samples for PK assessment were obtained pre-dose, up to 12 times daily on day 1, and then at regular intervals throughout the study. Blood samples were collected according to the following schedule: SAD Cohorts: Day 1: pre-dose and 0.25, 0.5, 1, 1.5, 2, 2.5, 3, 4, 6, 8, 12, 16, 24, 36, 48, 72, 96, and 216 h post dose. MAD Cohorts (14-day Dosing): Day 1: pre-dose and 0.25, 0.5, 1, 1.5, 2, 2.5, 3, 4, 6, 8, and 12 h post dose; Days 2, 4, 5, 6, and 9: pre-dose (corresponding to trough samples following dosing on days 1, 3, 4, 5, and 8) and 1.5 h post dose; Days 3, 7, 8, 10, 11, 12, and 13: pre-dose (corresponding to trough samples following dosing on days 2, 6, 7, 9, 10, 11, and 12); Day 14: pre-dose and 0.25, 0.5, 1.5, 2, 2.5, 3, 4, 6, 8, 12, 16, 24, 36, 48, 72, and 168 h post dose. MAD Cohort (17-Day Dosing): Day 1: pre-dose and 0.25, 0.5, 1, 1.5, 2, 2.5, 3, 4, 6, 8, and 12 h post dose; Days 2, 4, 5, 6, and 9: pre-dose (corresponding to trough samples following dosing on days 1, 3, 4, 5, and 8) and 1.5 h post dose; Days 3, 7, 8, 10, 11, 12, 13, 14, 15, and 16: pre-dose (corresponding to trough samples following dosing on days 2, 6, 7, 9, 10, 11, and 12); Day 17: pre-dose and 0.25, 0.5, 1.5, 2, 2.5, 3, 5, 7, 9, 12, 24, 36, 48, 72, and 168 h post dose. CYPD6-PM Cohort: Day 1: pre-dose and 0.25, 0.5, 1, 1.5, 2, 2.5, 3, 4, 6, 8, 12, 16, 24, 36, 48, 72, 96, 216, 312, and 552 h post dose. Food-Effect Cohort: Day 1: pre-dose and 0.25, 0.5, 1, 1.5, 2, 2.5, 3, 4, 6, 8, 12, 16, 24, 36, 48, 72, 96, 144, and 216 h post dose. Standard non-compartmental methods were used to calculate PK parameters using Phoenix® WinNonlin® Version 7.0; actual sample collection times were utilized.
For the MAD cohort, the parameters were AUC24 and Cmax on day 1, plus AUC to the end of the dosing period (AUCtau) and Cmax on day 14 or 17. The statistical linear relationship between the In-transformed PK parameters and the In-transformed dose was verified by including the quadratic (ln Dose)^2 and cubic (ln Dose)^3 effects. […] The dose-proportionality analysis was performed using SAS® PROC MIXED.
An analysis of variance (ANOVA) model was conducted separately for each dose level; day was included as the fixed effect. Helmert contrasts were developed such that each time-point was compared with the mean of the subsequent time-points.

[2] = system: patients with symptomatic non-obstructive HCM (nHCM) or HCM with MVO; assay: Phase 2 trial (Example 2): cardiac biomarkers NT-proBNP and hs-cTnI; format: in vivo, human
Method: Echocardiograms obtained on day 1 of treatment, at weeks 2, 4, 6, and 10 of treatment, and two weeks after the last dose were analyzed for several key structural and physiologic metrics; measurements of N-terminal prohormone of brain natriuretic peptide (NT-proBNP), and cardiac troponin I were also monitored. Ambulatory cardiac monitoring was conducted one week before day 1 of treatment and at week 9.
The exploratory PD endpoints included but were not limited to: (i) The relationship of plasma concentration ranges of CK-3773274 to LVEF, LVFS, global longitudinal strain (GLS); (ii) Observed values and change from baseline in the echocardiography parameters described in Table 13 and evaluated by the core laboratory during treatment at Weeks 2, 4, 6, 10, and 12; (iii) Change in NT-proBNP from baseline to Week 10; (iv) Change in hs-cTnI from baseline to Week 10; (v) Proportion of patients with LVEF ≥50% and ≥50% reduction from baseline NT-proBNP.
For select PD measurements with statistical distributions likely to depart from normal, proportional change from baseline was evaluated.

[3] = system: patients with symptomatic non-obstructive HCM (nHCM) or HCM with MVO; assay: Phase 2 trial (Example 2): safety and tolerability; conditions: for Patients with fatal TEAEs: not related
From the text: The study excluded patients receiving disopyramide. […] Overall, the treatment duration was 10 weeks with a 4-week follow-up period after the last dose.
Patients were eligible to be included in the study only if all the following criteria apply: 1. Able to comprehend and willing to sign an informed consent form (ICF) and willing to comply with all study procedures and restrictions for the duration; 2. Males and females between 18 and 85 years of age at screening; 3. Body weight is ≥45 kg at screening; 4. Diagnosed with HCM per the following criteria: (a) has LV hypertrophy and non-dilated LV chamber in the absence of other cardiac disease; and (b) has minimal wall thickness ≥15 mm (minimal wall thickness ≥13 mm is acceptable with a positive family history of HCM or with a known disease-causing gene mutation); 5. Adequate acoustic windows for echocardiography; 7. Left ventricular ejection fraction (LVEF) ≥60% at screening; 8. New York Heart Association (NYHA) Class II or III at screening; 9. Patients on beta-blockers, verapamil, diltiazem, or ranolazine should have been on stable doses for ≥4 weeks and anticipate remaining on the same medication regimen during the study; 10. […] Able to complete all screening procedures.
Patients were excluded from the study if any of the following criteria applied: 1. Aortic stenosis or fixed subaortic obstruction; 2. Known infiltrative or storage disorder causing cardiac hypertrophy that mimics HCM (e.g., Noonan syndrome, Fabry disease, amyloidosis); 3. […] Documented history of current obstructive coronary artery disease (>70% stenosis in one or more epicardial coronary arteries) or documented history of myocardial infarction; 6. […] Has any ECG abnormality considered by the investigator to pose a risk to patient safety (e.g., second degree atrioventricular block type II); 9. Paroxysmal atrial fibrillation or flutter documented during the screening period; 10. […] Currently participating in another investigational device or drug study or received an investigational device or drug <1 month (or 5 half-lives for drugs, whichever is longer) prior to screening; 20.
Each patient received Dose 1 once daily for 2 weeks. […] Otherwise, the patient remained on Dose 1. If LVEF was <50% at Week 2, treatment was discontinued.
Otherwise, the patient remained on the same dose. If LVEF was <50% at Week 4, the patient returned to a prior dose level or treatment was discontinued if the patient was on Dose 1.
If LVEF was <50% at Week 6, the patient was down-titrated to a prior dose level or discontinued if the patient was on Dose 1.
Primary safety endpoints were: (i) patient incidence of reported AEs from first dose up to safety follow-up; (ii) patient incidence of reported SAEs from first dose up to safety follow-up; (iii) patient incidence of LVEF <50% from first dose up to safety follow-up.
Safety follow-up was defined as 4 weeks following the last dose.

[4] = end of treatment (week 10), second interim
[5] = number of patients, N = 41, interim

CCc1nc(-c2ccc3c(c2)CC[C@H]3NC(=O)c2cnn(C)c2)no1 [aficamten, (R)—N-(5-(5-ethyl-1,2,4-oxadiazol-3-yl)-2,3-dihydro-1H-inden-1-yl)-1-methyl-1H-pyrazole-4-carboxamide]
AUC24 ([1]; MAD 5 mg qd × 14 Days): 278 ng·h/mL
Cmax ([1]; MAD 5 mg qd × 14 Days): 28.0 ng/mL
Tmax ([1]; MAD 5 mg qd × 14 Days): 1.3 h
AUCtau ([1]; MAD 5 mg qd, Day 14): 1320 ng·h/mL
Cmax, ss ([1]; MAD 5 mg qd, Day 14): 69.0 ng/mL
CLss/F ([1]; MAD 5 mg qd, Day 14): 3.9 ± 0.9 L/h
t1/2 ([1]; MAD 5 mg qd, Day 14): 86.4 ± 11.9 h
Tmax, ss ([1]; MAD 5 mg qd, Day 14): 2.8 h
Tmax ([1]; MAD 7.5 mg qd × 17 Days): 0.8 h
AUCtau ([1]; MAD 7.5 mg qd, Day 17): 2518 ng·h/mL
Cmax, ss ([1]; MAD 7.5 mg qd, Day 17): 147.6 ng/mL
CLss/F ([1]; MAD 7.5 mg qd, Day 17): 3.1 ± 0.7 L/h
t1/2 ([1]; MAD 7.5 mg qd, Day 17): 76.9 ± 14.5 h
AUC24 ([1]; MAD 10 mg qd × 14 Days): 547 ng·h/mL
Cmax ([1]; MAD 10 mg qd × 14 Days): 54.4 ng/mL
Tmax ([1]; MAD 10 mg qd × 14 Days): 1.0 h
AUCtau ([1]; MAD 10 mg qd, Day 14): 2632 ng·h/mL
Cmax, ss ([1]; MAD 10 mg qd, Day 14): 141.2 ng/mL
CLss/F ([1]; MAD 10 mg qd, Day 14): 3.9 ± 0.8 L/h
t1/2 ([1]; MAD 10 mg qd, Day 14): 79.8 ± 14.1 h
Tmax, ss ([1]; MAD 10 mg qd, Day 14): 2.5 h
steady state achieved by end of day ([1]; MAD 5-mg and 7.5-mg doses): 12 days
steady state achieved by end of day ([1]; MAD 10-mg dose): 10 days
time to steady state ([1]; once-daily dosing): ≤ 2 weeks
symptoms, NT-proBNP and hs-Troponin I in patients with mid-ventricular obstruction (MVO) ([2]; 7 patients with MVO, second interim): All patients in this subgroup showed symptom improvement and reduction in both NT-proBNP and hs-Troponin I levels
cardiac biomarkers (NT-proBNP, hs-cTnI) after washout ([2]; after the 2-week washout): rebounded upwards off drug
reduction of NT-proBNP (geometric mean, proportional change from baseline) ([2]; end of treatment (week 10), interim, p<0.0001): 56%
reduction of hs-cTnI (proportional to baseline) ([2]; end of treatment (week 10), interim, p<0.05): 21%
mean (SE) reduction of NT-proBNP [2, 4]: -870 pg/mL
mean (SE) reduction of hs-cTnI [2, 4]: -24.8 ng/L
reduction of NT-proBNP ([2]; end of treatment (week 10), second interim, p<0.0001): 55%
reduction of hs-cTnI ([2]; end of treatment (week 10), second interim, p<0.05): 21%
patients who experienced SAEs ([3]; 4 of 41 patients including one death, second interim): 9.8%
overall tolerability ([3]; 10 weeks, nHCM patients): well-tolerated overall
patients with LVEF <50% ([3]; Week 10 (EOT), 3 of 41 patients): 7.3%
recovery of LVEF in patients with LVEF <50% ([3]; by Week 12 (2 weeks' washout)): All 3 patients returned to baseline LVEF; also recorded: All LVEF returned to normal
AEs of heart failure ([3]; interim): No AEs of heart failure
drug discontinuations due to AE ([3]; interim): no drug discontinuations
relatedness of SAEs (bronchitis, new onset atrial fibrillation, cardiac arrest) per Investigator ([3]; interim): None of these were deemed related to aficamten
Patients reporting at least one TEAE [3, 5]: 27
Patients with AEs related to study drug (per Investigator) [3, 5]: 4
Patients with Moderate TEAEs [3, 5]: 14
Patients with Severe TEAEs [3, 5]: 3
Patients with fatal TEAEs [3, 5]: 1
Patients with AEs related to study drug (per Investigator) ([3]; percent of N = 41, interim): (9.8) %
Patients with Moderate TEAEs ([3]; percent of N = 41, interim): (34) %
Patients with Severe TEAEs ([3]; percent of N = 41, interim): (7.3) %
Patients with TESAEs ([3]; percent of N = 41, interim): (7.3) %
Patients with fatal TEAEs ([3]; percent of N = 41, interim): (2.4) not related %
attribution of SAEs ([3]; second interim): None of the SAEs were attributed to aficamten
events with LVEF <40% ([3]; second interim): no events with LVEF <40%; also recorded: No LVEF <40% occurred
treatment interruptions or down-titration events related to LVEF <50% ([3]; second interim): no treatment interruptions or down-titration events
patients with dose reduction to 10 mg for AE fatigue ([3]; week 9, interim): One patient
LVEF <50% during the titration period ([3]; weeks 0-6, interim): no LVEF were less than 50%
